Ends that are not written are not given here.
target: HLA-A2.1 molecule (Homo sapiens, UniProt P04439, D140Y/D185E/D98H/E176V/E277Q/G131W/G231S/I119V/I121R/I166T/I218V/L300P/L318F/N151K/N90K/P208A/P217A/Q86G/Q94H/R138H/R169H/T345S); test: HLA-A class I binding assay (competitive inhibition of radiolabeled probe peptide); details: competitive inhibition of binding of radiolabeled standard probe peptide to purified detergent-solubilized HLA-A2.1

FVDYNFSLV [Ts 47] was tested. Which IC50 did it give?
Its IC50 is 0.0011 µM.

With GLLPSLLLLL [Ts 3] as the sequence, how does the IC50 read?
The IC50 was 0.0031 µM.

RLLPSLLLLL [Ts 4] was tested. Which IC50 did it give?
Its IC50 is 0.0008 µM.

Which IC50 does the source give for LLGLWGTAAL [Ts 13] here?
Its IC50 is 0.499 µM.

How did the IC50 turn out when RVSRPTTVV [Ts 58] was run?
Its IC50 is 2.49 µM.

Which IC50 does the source give for FANHKFTLV [Ts 38] here?
Its IC50 is 0.148 µM.

Which IC50 does the source give for FVNHRFTLV [Ts 37] here?
Its IC50 is 0.304 µM.

With FVNYNFTLV [Ts 45] as the sequence, how does the IC50 read?
The IC50 was 0.00025 µM.

Which IC50 does the source give for FLSHNFTLVF [Ts 27] here?
The IC50 was 0.00061 µM.

For FANYNFTLV [Ts 48], which IC50 is on record?
Its IC50 is 0.00047 µM.

Which IC50 does the source give for LLGLWVFAAL [Ts 2] here?
Its IC50 is 0.036 µM.

For FVSCDFTIV [Ts 35], which IC50 is on record?
The IC50 was 0.03 µM.

How did the IC50 turn out when FANYKFTLV [Ts 44] was run?
The IC50 was 0.049 µM.

For SLSHYFTLVF [Ts 26], which IC50 is on record?
Its IC50 is 0.0016 µM.

IANYNFTLV [Ts 56] was tested. Which IC50 did it give?
Its IC50 is 29.6 µM.

Which IC50 does the source give for FANYNFTLL [Ts 51] here?
The IC50 was 1.5 µM.

Which IC50 does the source give for FTNNKFTLS [Ts 68] here?
The IC50 was greater than 50 µM.

Which IC50 does the source give for FLSHDFTLV [Ts 24] here?
Its IC50 is 0.00046 µM.

ELLRPTTLV [Ts 52] was tested. Which IC50 did it give?
The IC50 was 2.41 µM.

Which IC50 does the source give for FANHDFTLV [Ts 34] here?
The IC50 was 0.101 µM.

How did the IC50 turn out when LLGLWGLATA [Ts 6] was run?
Its IC50 is 0.024 µM.

For FANNKFTLV [Ts 43], which IC50 is on record?
The IC50 was 0.116 µM.

tested on: PBMC from HLA-A2.1+ patients with chronic Chagas disease; test: IFN-γ ELISPOT with individual HLA-A0201-binding ts peptides in HLA-A2.1+ subjects; assay type: cell-based, human; details: HLA-A2.1+ patients group G0, peptide 10 µg/ml, 4×10^5 PBMC/well, 16–20 hr, positive: >=25 SFCs/10^6 PBMC and at least twice media alone

FTNNKFTLS [Ts 68] was tested. Which “No. of positive responders/total no. of subjects assayed (%), G0” value did it give?
Its value is 0/6.

same assay, conditions: HLA-A2.1+ patients group G1, peptide 10 µg/ml, 16–20 hr

Which “No. of positive responders/total no. of subjects assayed (%), G1” value does the source give for FTNNKFTLS [Ts 68] here?
Its value is 0/5.

same assay, conditions: HLA-A2.1+ patients group G2/G3, peptide 10 µg/ml, 16–20 hr

For FTNNKFTLS [Ts 68], which “No. of positive responders/total no. of subjects assayed (%), G2/G3” value is on record?
The value was 0/8.

tested on: PBMC from chronic Chagas disease subjects; test: IFN-γ ELISPOT with supertype peptide pools, single peptides or lysate in non-HLA-typed G0 subjects; assay type: cell-based, human; details: single peptides 10 µg/ml, representative results from single individuals, media alone subtracted (media alone 13±10)
Procedure: The number of peptide-specific IFN-γ and IL-2-secreting T cells was determined by ex vivo ELISPOT using commercial kits (Becton & Dickinson, San Diego, CA). Cryopreserved PBMC from chronic chagasic subjects were seeded in triplicate wells at a concentration of 4×10^5/well, and stimulated with individual peptides (10 µg/ml), peptide pools (7–13 peptides per pool, 5 µg/ml/peptide) comprising HLA A01 (2 pools), A02 (2 pools), A03 (2 pools), A24 (2 pools), B07 (1 pool) or B44 (1 pool)-binding peptides or T. cruzi lysate (10 µg/ml) for 16–20 hr at 37°C and 5% CO2. For controls, cells were incubated with complete RPMI, A2-restricted HIV Pol (amino acids 510–518: […]), A2-restricted flu matrix 1 (amino acids 58–66: […]) or 50 ng/ml […] and 500 nM ionomicin (Sigma). Spot forming cells (SFCs) were automatically enumerated using ImmunoSpot analyzer (CTL).
The mean number of SFCs in triplicate wells was obtained for each condition, and the number of specific IFN-γ and IL-2-secreting T cells (net SFCs), was calculated by subtracting the value of the wells containing media alone from the peptide/mitogen-stimulated spot count. Responses were considered significant if a minimum of 25 SFCs/1×10^6 PBMC were present per well, and additionally, this number was at least twice the value of wells with media alone.
The number of annotated T. cruzi genes containing supertype-binding epitopes was then used to prioritize peptides to be assessed for recognition by CD8^+ T cells from a group of non-HLA-typed chagasic subjects (Table 2). IFN-γ ELISPOT responses to peptide pools containing a total of ninety-six epitopes representing HLA A01 (18 epitopes), HLA A02 (20 epitopes), HLA A03 (20 epitopes), HLA A24 (14 epitopes), HLA B07 (11 epitopes) and HLA-B44 (13 epitopes) supertypes were evaluated in 25 chronic Chagas disease subjects without clinical and radiological evidence of heart disease (G0 status) regardless of their HLA type. […] Four subjects had positive responses to more than one supertype (3 of these subjects recognized both HLA-A02 and HLA-A03-binding peptides, Fig. 1). It is noteworthy that responses to HLA-A02 and HLA03 supertype-restricted epitopes covered 77% of the total responses detected, consistent with the high worldwide frequency of these alleles.

With MLSRVAAVK as the sequence, how does the “No. Net IFN-γ SFCs/10^6 PBMC” value read?
The value was 38 SFCs/10^6 PBMC.

With ITATIEGRK as the sequence, how does the “No. Net IFN-γ SFCs/10^6 PBMC” value read?
Its value is 50 SFCs/10^6 PBMC.

LWLTDNTHI was tested. Which “No. Net IFN-γ SFCs/10^6 PBMC” value did it give?
The value was 463 SFCs/10^6 PBMC.

For AVAEAQCKK, which “No. Net IFN-γ SFCs/10^6 PBMC” value is on record?
Its value is 18 SFCs/10^6 PBMC.

With LVTLPVYSK as the sequence, how does the “No. Net IFN-γ SFCs/10^6 PBMC” value read?
The value was 15 SFCs/10^6 PBMC.

For MLVTLPVYS, which “No. Net IFN-γ SFCs/10^6 PBMC” value is on record?
The value was 15 SFCs/10^6 PBMC.

How did the “No. Net IFN-γ SFCs/10^6 PBMC” value turn out when HNFTLVASV was run?
Its value is 15 SFCs/10^6 PBMC.

For FTSAVLLLL, which “No. Net IFN-γ SFCs/10^6 PBMC” value is on record?
Its value is 25 SFCs/10^6 PBMC.

With NVMLVTLPV as the sequence, how does the “No. Net IFN-γ SFCs/10^6 PBMC” value read?
The value was 18 SFCs/10^6 PBMC.

FQGAWAEWPV was tested. Which “No. Net IFN-γ SFCs/10^6 PBMC” value did it give?
The value was 32 SFCs/10^6 PBMC.

Which “No. Net IFN-γ SFCs/10^6 PBMC” value does the source give for HLFYSAVLL here?
The value was 40 SFCs/10^6 PBMC.

How did the “No. Net IFN-γ SFCs/10^6 PBMC” value turn out when RVLLLLLLGL was run?
Its value is 20 SFCs/10^6 PBMC.

With FLYNRPLNS as the sequence, how does the “No. Net IFN-γ SFCs/10^6 PBMC” value read?
Its value is 18 SFCs/10^6 PBMC.

With FTLVATVSI as the sequence, how does the “No. Net IFN-γ SFCs/10^6 PBMC” value read?
Its value is 70 SFCs/10^6 PBMC.

With FTLVASVTI as the sequence, how does the “No. Net IFN-γ SFCs/10^6 PBMC” value read?
Its value is 35 SFCs/10^6 PBMC.

How did the “No. Net IFN-γ SFCs/10^6 PBMC” value turn out when VALMLQGNK was run?
Its value is 18 SFCs/10^6 PBMC.

For FVSPSLVSA, which “No. Net IFN-γ SFCs/10^6 PBMC” value is on record?
Its value is 18 SFCs/10^6 PBMC.

With TSAVLLLLVV as the sequence, how does the “No. Net IFN-γ SFCs/10^6 PBMC” value read?
Its value is 18 SFCs/10^6 PBMC.

LLLLVVMMCC was tested. Which “No. Net IFN-γ SFCs/10^6 PBMC” value did it give?
Its value is 18 SFCs/10^6 PBMC.

Which “No. Net IFN-γ SFCs/10^6 PBMC” value does the source give for VTDNNRSFY here?
Its value is 30 SFCs/10^6 PBMC.

With IYMLVGKYS as the sequence, how does the “No. Net IFN-γ SFCs/10^6 PBMC” value read?
Its value is 65 SFCs/10^6 PBMC.

LLLGLWGFA was tested. Which “No. Net IFN-γ SFCs/10^6 PBMC” value did it give?
Its value is 30 SFCs/10^6 PBMC.
